Data as given in patent US8114885B2, “Chemical compounds” (GlaxoSmithKline LLC, priority 2000, dated 2012).
Counter-ions that a name gives are not always drawn.

The molecules below were run on HUVEC (assay: Human Umbilical Vein Endothelial Cell (HUVEC) proliferation assay (BrdU incorporation)). Settings: VEGF-stimulated HUVEC, 72 hrs, read-out: Inhibition of HUVEC proliferation IC50.
Type: cell-based
Experimental: Human Umbilical Vein Endothelial Cell (HUVEC) Proliferation Assay (BrdU Incorporation) Materials
HUVEC cells and EGM-MV (Endothelial cell growth medium—microvascular) were purchased from Clonetics (San Diego, Calif.). VEGF and bFGF were purchased from R&D Systems (Minneapolis, Minn.). Anti-BrdU antibody was obtained from Chemicon International (Temecula, Calif.).
HUVECs were routinely maintained in EGM-MV medium and were used within passage 7. HUVECs were plated at a density of 2500 cells/well in M199 medium containing 5% FBS (Hyclone) in type I collagen coated plate (Becton Dickinson). The plate was incubated at 37° C. overnight. The medium was removed by aspiration, and test compounds were added to each well in a volume of 0.1 ml/well in serum-free M199 medium. Compound concentrations ranged from 1.5 nM to 30 micromolar. The plate was incubated for 30 min at 37° C. Another 0.1 ml of serum-free M199 medium containing BSA and VEGF (or bFGF) was added to give a final concentration of 0.1% BSA and 10 ng/ml VEGF (0.3 ng/ml bFGF). The plate was incubated at 37° C. for 72 hrs. BrdU was added to each well after the first 48 hrs to give a concentration of 10 micromolar. The calorimetric ELISA assay was performed according to manufacturer's (Roche Molecular Sciences) instructions, with detection by absorbance reading at 450 nm. Results were plotted as concentration of test compound vs. absorbance to give an IC50 value for inhibition of BrdU incorporation.

SMILES	IC50 [nM]
Cc1n[nH]c2cc(N(CC#N)c3ccnc(Nc4cccc(CS(C)(=O)=O)c4)n3)ccc12 [Example 46, [(3-methyl-1H-indazol-6-yl)(2-{3-[(methylsulfonyl)methyl]anilino}-4-pyrimidinyl)amino]acetonitrile]	1 to 200
COc1ccc(S(=O)(=O)CC(C)C)cc1Nc1nccc(Nc2ccc3c(C)n[nH]c3c2)n1 [Example 30, N^2-[5-(isobutylsulfonyl)-2-methoxyphenyl]-N^4-(3-methyl-1H-indazol-6-yl)-2,4-pyrimidinediamine]	501 to 1000
Cc1ccc(Nc2ncc(F)c(N(C)c3ccc4c(C)n[nH]c4c3)n2)cc1NS(C)(=O)=O [Example 6, N-[5-({5-fluoro-4-[methyl(3-methyl-1H-indazol-6-yl)amino]-2-pyrimidinyl}amino)-2-methylphenyl]methanesulfonamide]	201 to 500
Cc1c2ccc(N(C)c3ccnc(Nc4cccc(CS(C)(=O)=O)c4)n3)cc2nn1C [Example 39, N^4-(2,3-dimethyl-2H-indazol-6-yl)-N^4-methyl-N^2-{3-[(methylsulfonyl)methyl]phenyl}-2,4-pyrimidinediamine]	1 to 200
Cc1n[nH]c2cc(Nc3ncnc(Nc4cccc(CS(C)(=O)=O)c4)n3)ccc12 [Example 15, N^2-(3-methyl-1H-indazol-6-yl)-N^4-{3-[(methylsulfonyl)methyl]phenyl}-1,3,5-triazine-2,4-diamine trifluoroacetate]	501 to 1000
COc1ccc(S(N)(=O)=O)cc1Nc1nccc(Nc2ccc3c(C)n[nH]c3c2)n1 [Example 34, 4-methoxy-3-({4-[(3-methyl-1H-indazol-6-yl)amino]-2-pyrimidinyl}amino)benzenesulfonamide]	201 to 500
CCS(=O)(=O)c1ccc(OC)c(Nc2ncnc(N(C)c3ccc4c(C)n[nH]c4c3)n2)c1 [Example 17, N^2-[5-(ethylsulfonyl)-2-methoxyphenyl]-N^4-methyl-N^4-(3-methyl-1H-indazol-6-yl)-1,3,5-triazine-2,4-diamine hydrochloride]	501 to 1000
Cc1n[nH]c2cc(N(C)c3ccnc(Nc4ccc(Cl)c(S(N)(=O)=O)c4)n3)ccc12 [Example 60, 2-chloro-5-({4-[methyl(3-methyl-1H-indazol-6-yl)amino]-2-pyrimidinyl}amino)benzenesulfonamide]	1 to 200
COc1cc(S(N)(=O)=O)ccc1Nc1ncc(F)c(N(C)c2ccc3c(C)n[nH]c3c2)n1 [Example 14, 4-({5-fluoro-4-[methyl(3-methyl-1H-indazol-6-yl)amino]-2-pyrimidinyl}amino)-3-methoxybenzenesulfonamide]	1 to 200
Cc1n[nH]c2cc(N(C)c3nc(Nc4ccc(S(N)(=O)=O)cc4)ncc3F)ccc12 [Example 9, 4-({5-fluoro-4-[methyl(3-methyl-1H-indazol-6-yl)amino]-2-pyrimidinyl}amino)benzenesulfonamide]	201 to 500
CCN(c1ccc2c(C)n[nH]c2c1)c1nc(Nc2cc(S(C)(=O)=O)ccc2OC)ncc1F [Example 10, N^4-ethyl-5-fluoro-N^2-[2-methoxy-5-(methylsulfonyl)phenyl]-N^4-(3-methyl-1H-indazol-6-yl)-2,4-pyrimidinediamine]	> 1000
Cc1n[nH]c2cc(N(C)c3ccnc(Nc4cccc(S(C)(=O)=O)c4)n3)ccc12 [Example 53, N^4-methyl-N^4-(3-methyl-1H-indazol-6-yl)-N^2-[3-(methylsulfonyl)phenyl]-2,4-pyrimidinediamine]	1 to 200
Cc1ccc(Nc2ncnc(N(C)c3ccc4c(C)n[nH]c4c3)n2)cc1NS(C)(=O)=O [Example 18, N-[2-methyl-5-({4-[methyl(3-methyl-1H-indazol-6-yl)amino]-1,3,5-triazin-2-yl}amino)phenyl]methanesulfonamide]	501 to 1000
Cc1n[nH]c2cc(N(C)c3ccnc(Nc4cccc([S+](C)[O-])c4)n3)ccc12 (centres unmarked) [Example 66, N^4-methyl-N^4-(3-methyl-1H-indazol-6-yl)-N^2-[3-(methylsulfinyl)phenyl]-2,4-pyrimidinediamine]	1 to 200
Cc1n[nH]c2cc(N(C)c3ccnc(Nc4ccc(S(N)(=O)=O)cc4)n3)ccc12 [Example 52, 4-({4-[methyl(3-methyl-1H-indazol-6-yl)amino]-2-pyrimidinyl}amino)benzenesulfonamide]	1 to 200
CCS(=O)(=O)c1ccc(OC)c(Nc2nccc(N(c3ccc4c(C)n[nH]c4c3)C(C)C)n2)c1 [Example 36, N^2-[5-(ethylsulfonyl)-2-methoxyphenyl]-N^4-isopropyl-N^4-(3-methyl-1H-indazol-6-yl)-2,4-pyrimidinediamine]	> 1000

SMILES	IC50 [nM]
Cc1c2ccc(N(C)c3ccnc(Nc4cccc(S(N)(=O)=O)c4)n3)cc2nn1Cc1cccc(Cl)c1 [Example 77, 3-({4-[[2-(3-chlorobenzyl)-3-methyl-2H-indazol-6-yl](methyl)amino]pyrimidin-2-yl}amino)benzenesulfonamide]	1 to 200
Cc1n[nH]c2cc(N(C)c3nc(Nc4ccc(S(C)(=O)=O)cc4)ncc3F)ccc12 [Example 7, 5-fluoro-N^4-methyl-N^4-(3-methyl-1H-indazol-6-yl)-N^2-[4-(methylsulfonyl)phenyl]-2,4-pyrimidinediamine]	201 to 500
COc1ccc(S(C)(=O)=O)cc1Nc1nccc(N(C)c2ccc3c(C)n[nH]c3c2)n1 [Example 68, N^2-[2-methoxy-5-(methylsulfonyl)phenyl]-N^4-methyl-N^4-(3-methyl-1H-indazol-6-yl)-2,4-pyrimidinediamine]	1 to 200
Cc1n[nH]c2cc(N(C)c3ccnc(Nc4ccc(CS(=O)(=O)C(C)C)cc4)n3)ccc12 [Example 29, N^2-{4-[(isopropylsulfonyl)methyl]phenyl}-N^4-methyl-N^4-(3-methyl-1H-indazol-6-yl)-2,4-pyrimidinediamine]	1 to 200
Cc1c2ccc(N(C)c3ccnc(Nc4ccc(CCS(N)(=O)=O)cc4)n3)cc2nn1C [Example 71, 2-[4-({4-[(2,3-dimethyl-2H-indazol-6-yl)(methyl)amino]pyrimidin-2-yl}amino)phenyl]ethanesulfonamide]	1 to 200
Cc1n[nH]c2cc(N(C)c3ccnc(Nc4ccc(C(N)=O)cc4)n3)ccc12 [Example 48, 4-({4-[methyl(3-methyl-1H-indazol-6-yl)amino]-2-pyrimidinyl}amino)benzamide]	1 to 200
Cc1n[nH]c2cc(N(C)c3ccnc(Nc4cccc(CS(=O)(=O)C(C)C)c4)n3)ccc12 [Example 28, N^2-{3-[(isopropylsulfonyl)methyl]phenyl}-N^4-methyl-N^4-(3-methyl-1H-indazol-6-yl)-2,4-pyrimidinediamine]	1 to 200
Cc1n[nH]c2cc(N(C)c3ccnc(Nc4cc(S(C)(=O)=O)ccc4F)n3)ccc12 [Example 67, N^2-[2-fluoro-5-(methylsulfonyl)phenyl]-N^4-methyl-N^4-(3-methyl-1H-indazol-6-yl)-2,4-pyrimidinediamine]	201 to 500
Cc1n[nH]c2cc(N(C)c3ncnc(Nc4cccc(CS(C)(=O)=O)c4)n3)ccc12 [Example 16, N^2-methyl-N^2-(3-methyl-1H-indazol-6-yl)-N^4-{3-[(methylsulfonyl)methyl]phenyl}-1,3,5-triazine-2,4-diamine hydrochloride]	201 to 500
CNS(=O)(=O)c1ccc(OC)c(Nc2nccc(N(C)c3ccc4c(C)n[nH]c4c3)n2)c1 [Example 47, 4-methoxy-N-methyl-3-({4-[methyl(3-methyl-1H-indazol-6-yl)amino]-2-pyrimidinyl}amino)benzenesulfonamide]	201 to 500
CCS(=O)(=O)c1ccc(OC)c(Nc2nccc(N(C)c3ccc4c(C)n(C)nc4c3)n2)c1 [Example 40, N^4-(2,3-dimethyl-2H-indazol-6-yl)-N^2-[5-(ethylsulfonyl)-2-methoxyphenyl]-N^4-methyl-2,4-pyrimidinediamine]	1 to 200
Cc1n[nH]c2cc(N(C)c3ccnc(Nc4cccc(C(N)=O)c4)n3)ccc12 [Example 56, 3-({4-[methyl(3-methyl-1H-indazol-6-yl)amino]-2-pyrimidinyl}amino)benzamide]	1 to 200
Cc1c2ccc(N(C)c3ccnc(Nc4cccc(S(N)(=O)=O)c4)n3)cc2nn1C [Example 70, 3-({4-[(2,3-dimethyl-2H-indazol-6-yl)(methyl)amino]pyrimidin-2-yl}amino)benzenesulfonamide]	1 to 200
C#CCN(c1ccc2c(C)n[nH]c2c1)c1ccnc(Nc2cccc(S(N)(=O)=O)c2)n1 [Example 51, 3-({4-[(3-methyl-1H-indazol-6-yl)(2-propynyl)amino]-2-pyrimidinyl}amino)benzenesulfonamide]	201 to 500
CC(=O)Nc1cccc(Nc2nccc(N(C)c3ccc4c(C)n[nH]c4c3)n2)c1 [Example 31, N-[3-({4-[methyl(3-methyl-1H-indazol-6-yl)amino]-2-pyrimidinyl}amino)phenyl]acetamide]	1 to 200
CCS(=O)(=O)c1ccc(OC)c(Nc2nccc(N(CC#N)c3ccc4c(C)n[nH]c4c3)n2)c1 [Example 45, [{2-[5-(ethylsulfonyl)-2-methoxyanilino]-4-pyrimidinyl}(3-methyl-1H-indazol-6-yl)amino]acetonitrile]	501 to 1000
